Numbered stars: 1 amine (or outer) side, 2 acyl side, 3 side chain; on linkers, the order of the positions; unused ones are H or OH. Side chains are listed from the residue outwards. Ends that are not written are not given here. Peptide text beside a SMILES is read from it. * marks the point of attachment. TTDA(Palmitoyl) = CCCCCCCCCCCCCCCC(=O)NCCCOCCOCCOCCCN*; γGlu = O=C(O)[C@H](CCC(=O)[*:2])N[*:1]; Palmitoyl = CCCCCCCCCCCCCCCC(=O)*; Suc = O=C(CCC(=O)[*:2])[*:1]; Lauroyl = CCCCCCCCCCCC(=O)*; Decanoyl = CCCCCCCCCC(=O)*
Assays:
C57BL/6 mice = assay: Food intake in fasted mice after SC injection; assay type: in vivo; details: 5 mg/kg SC, 45 min after injection
In short: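 Saline, PrRP or a lipidated analog was injected SC (1-10 mg/kg) after a 17 h fast with free water, animals housed singly.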

rat PrRP receptor = molecular target: T1, rat PrRP receptor (Rattus norvegicus, UniProt Q64121); assay: Competitive binding in RC-4B/C rat pituitary cells (125I-rat PrRP31); details: for Ki / Displacement of rat 125I-PrRP binding: RC-4B/C cells; for Ki: displacement of 125I-rat PrRP31, read-out: Ki, RC-4B/C rat pituitary cells ^25I-rat PrRP31; for Displacement of rat 125I-PrRP binding: rat PrRP receptor; for % of PrRP31, RC-4B/C rat pituitary cells: affinity relative to PrRP31
T1 construct: host or cells: RC-4B/C rat pituitary cell line
T1 sequence (Q64121 1-370): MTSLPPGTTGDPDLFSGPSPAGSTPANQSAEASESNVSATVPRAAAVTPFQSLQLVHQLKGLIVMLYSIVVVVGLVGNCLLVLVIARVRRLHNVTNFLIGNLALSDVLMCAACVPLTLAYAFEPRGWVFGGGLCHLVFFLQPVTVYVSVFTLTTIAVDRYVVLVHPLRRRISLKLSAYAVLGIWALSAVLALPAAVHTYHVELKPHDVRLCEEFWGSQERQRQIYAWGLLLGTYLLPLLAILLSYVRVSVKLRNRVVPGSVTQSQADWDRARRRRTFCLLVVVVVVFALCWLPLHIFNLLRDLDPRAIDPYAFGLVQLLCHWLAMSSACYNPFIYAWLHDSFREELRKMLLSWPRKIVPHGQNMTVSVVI
In short: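 Displacement of rat 125I-PrRP31 ([…]) by test analogs, 10^−11–10^−4 mol·l^−1, on whole RC-4B/C cells, 60 min RT. Bound counts measured by γ-counter in duplicate, ≥3 repeats, analyzed by nonlinear one-site binding regression.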

[1] = molecular target: T2, human PrRP receptor GPR10 (Homo sapiens, UniProt P49683); assay: Competitive binding in CHO cells transfected with human GPR10 (human 125I-PrRP31); details: for Ki: CHO cells, human 125I-PrRP31, read-out: Ki, GPR10 human receptor transfected in CHO cells; for % of PrRP31, GPR10 human receptor transfected in CHO cells: affinity relative to PrRP31; for Displacement of human 125I-PrRP binding: human GPR10 receptor
T2 construct: host or cells: CHO cells
T2 sequence (P49683 1-370): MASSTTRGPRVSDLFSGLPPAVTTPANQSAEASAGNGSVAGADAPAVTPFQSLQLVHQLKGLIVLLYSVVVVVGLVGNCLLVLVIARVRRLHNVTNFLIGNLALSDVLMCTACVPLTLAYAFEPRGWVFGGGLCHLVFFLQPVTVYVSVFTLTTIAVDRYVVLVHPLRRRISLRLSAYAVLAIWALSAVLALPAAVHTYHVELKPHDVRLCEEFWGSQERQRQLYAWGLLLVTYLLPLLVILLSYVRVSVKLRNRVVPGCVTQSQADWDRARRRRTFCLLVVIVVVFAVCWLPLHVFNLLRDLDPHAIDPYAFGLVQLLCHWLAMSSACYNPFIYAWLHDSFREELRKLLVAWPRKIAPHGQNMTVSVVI
In short: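 Values from one-site nonlinear regression of displacement curves: analogs (final 10^-11 to 10^-4 mol·l^-1) competed with 125I-PrRP31 (final 5×10^-11 mol·l^-1) on adherent human GPR10 CHO cells. Binding ran 1 h at room temperature, pH 7.4 buffer with NaCl, MgCl2, CaCl2, glucose, BSA; cell-bound radioactivity counted after NaOH lysis.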

CCCCCCCCCC(=O)N[C@H](C(=O)N1CCC[C@H]1C(=O)N[C@@H](CC(=O)O)C(=O)N[C@H](C(=O)N[C@@H](CC(N)=O)C(=O)N1CCC[C@H]1C(=O)N[C@@H](C)C(=O)N[C@@H](Cc1c[nH]c2ccccc12)C(=O)N[C@@H](Cc1ccc(O)cc1)C(=O)N[C@@H](C)C(=O)N[C@@H](CO)C(=O)N[C@@H](CCCNC(=N)N)C(=O)NCC(=O)N[C@H](C(=O)N[C@@H](CCCNC(=N)N)C(=O)N1CCC[C@H]1C(=O)N[C@H](C(=O)NCC(=O)N[C@@H](CCCNC(=N)N)C(=O)N[C@@H](Cc1ccccc1)C(N)=O)C(C)C)[C@@H](C)CC)[C@@H](C)CC)[C@@H](C)O [Analog 40] (Decanoyl-TPDINPAWYASRGIRPVGRF-NH2)
Food intake in mice % of saline-treated group (C57BL/6 mice): 100%
Ki (rat PrRP receptor): 0.41 ± 0.01 nM
Displacement of rat 125I-PrRP binding (rat PrRP receptor): nmol·l^−1 range
% of PrRP31, RC-4B/C rat pituitary cells (rat PrRP receptor): 1202%
Ki [1]: 3.02 ± 0.49 nM
% of PrRP31, GPR10 human receptor transfected in CHO cells [1]: 129%
Displacement of human 125I-PrRP binding [1]: nmol·l^−1 range

CCCCCCCCCCCC(=O)N[C@H](C(=O)N1CCC[C@H]1C(=O)N[C@@H](CC(=O)O)C(=O)N[C@H](C(=O)N[C@@H](CC(N)=O)C(=O)N1CCC[C@H]1C(=O)N[C@@H](C)C(=O)N[C@@H](Cc1c[nH]c2ccccc12)C(=O)N[C@@H](Cc1ccc(O)cc1)C(=O)N[C@@H](C)C(=O)N[C@@H](CO)C(=O)N[C@@H](CCCNC(=N)N)C(=O)NCC(=O)N[C@H](C(=O)N[C@@H](CCCNC(=N)N)C(=O)N1CCC[C@H]1C(=O)N[C@H](C(=O)NCC(=O)N[C@@H](CCCNC(=N)N)C(=O)N[C@@H](Cc1ccccc1)C(N)=O)C(C)C)[C@@H](C)CC)[C@@H](C)CC)[C@@H](C)O [Analog 41] (Lauroyl-TPDINPAWYASRGIRPVGRF-NH2)
Food intake in mice % of saline-treated group (C57BL/6 mice): 85%
Ki (rat PrRP receptor): 0.6 ± 0.22 nM
Displacement of rat 125I-PrRP binding (rat PrRP receptor): nmol·l^−1 range
% of PrRP31, RC-4B/C rat pituitary cells (rat PrRP receptor): 822%
% of PrRP31, GPR10 human receptor transfected in CHO cells [1]: 161%
Displacement of human 125I-PrRP binding [1]: nmol·l^−1 range

CCCCCCCCCCCCCC(=O)N[C@@H](CO)C(=O)N[C@@H](CCCNC(=N)N)C(=O)N[C@H](C(=O)N[C@@H](Cc1c[nH]cn1)C(=O)N[C@@H](CCCNC(=N)N)C(=O)N[C@@H](Cc1c[nH]cn1)C(=O)N[C@@H](CO)C(=O)N[C@@H](CCSC)C(=O)N[C@@H](CCC(=O)O)C(=O)N[C@H](C(=O)N[C@@H](CCCNC(=N)N)C(=O)N[C@H](C(=O)N1CCC[C@H]1C(=O)N[C@@H](CC(=O)O)C(=O)N[C@H](C(=O)N[C@@H](CC(N)=O)C(=O)N1CCC[C@H]1C(=O)N[C@@H](C)C(=O)N[C@@H](Cc1c[nH]c2ccccc12)C(=O)N[C@@H](Cc1ccc(O)cc1)C(=O)N[C@@H](C)C(=O)N[C@@H](CO)C(=O)N[C@@H](CCCNC(=N)N)C(=O)NCC(=O)N[C@H](C(=O)N[C@@H](CCCNC(=N)N)C(=O)N1CCC[C@H]1C(=O)N[C@H](C(=O)NCC(=O)N[C@@H](CCCNC(=N)N)C(=O)N[C@@H](Cc1ccccc1)C(N)=O)C(C)C)[C@@H](C)CC)[C@@H](C)CC)[C@@H](C)O)[C@@H](C)CC)[C@@H](C)O [Analog 42]
Food intake in mice % of saline-treated group (C57BL/6 mice): 10%
Ki (rat PrRP receptor): 0.48 ± 0.18 nM
% of PrRP31, RC-4B/C rat pituitary cells (rat PrRP receptor): 1027%
% of PrRP31, GPR10 human receptor transfected in CHO cells [1]: 83%

CCCCCCCCCCCCCCCC(=O)N[C@@H](CCC(=O)NCCCC[C@H](NC(=O)[C@@H](NC(=O)[C@H](CCC(=O)O)NC(=O)[C@H](CCSC)NC(=O)[C@H](CO)NC(=O)[C@H](Cc1c[nH]cn1)NC(=O)[C@H](CCC(=O)O)NC(=O)[C@H](Cc1c[nH]cn1)NC(=O)[C@@H](NC(=O)[C@H](CCC(=O)O)NC(=O)[C@@H](N)CO)[C@@H](C)O)[C@@H](C)CC)C(=O)N[C@H](C(=O)N1CCC[C@H]1C(=O)N[C@@H](CC(=O)O)C(=O)N[C@H](C(=O)N[C@@H](CC(N)=O)C(=O)N1CCC[C@H]1C(=O)N[C@@H](C)C(=O)N[C@@H](Cc1c[nH]c2ccccc12)C(=O)N[C@@H](Cc1ccc(O)cc1)C(=O)N[C@@H](C)C(=O)N[C@@H](CO)C(=O)N[C@@H](CCCNC(=N)N)C(=O)NCC(=O)N[C@H](C(=O)N[C@@H](CCCNC(=N)N)C(=O)N1CCC[C@H]1C(=O)N[C@H](C(=O)NCC(=O)N[C@@H](CCCNC(=N)N)C(=O)N[C@@H](Cc1ccccc1)C(N)=O)C(C)C)[C@@H](C)CC)[C@@H](C)CC)[C@@H](C)O)C(=O)O [Analog 56] (H-SETHEHSMEIK([γGlu-Palmitoyl])TPDINPAWYASRGIRPVGRF-NH2)
Food intake in mice % of saline-treated group (C57BL/6 mice): 10%
Ki (rat PrRP receptor): 4.23 ± 2.11 nM
% of PrRP31, RC-4B/C rat pituitary cells (rat PrRP receptor): 57%
Ki [1]: 5.66 ± 0.39 nM
% of PrRP31, GPR10 human receptor transfected in CHO cells [1]: 57%

CCCCCCCCCCCCCCCC(=O)NCCCOCCOCCOCCCNC(=O)CCC(=O)NCCCC[C@H](NC(=O)[C@@H](NC(=O)[C@H](CCC(=O)O)NC(=O)[C@H](CCSC)NC(=O)[C@H](CO)NC(=O)[C@H](Cc1c[nH]cn1)NC(=O)[C@H](CCCNC(=N)N)NC(=O)[C@H](Cc1c[nH]cn1)NC(=O)[C@@H](NC(=O)[C@H](CCC(=O)O)NC(=O)[C@@H](N)CO)[C@@H](C)O)[C@@H](C)CC)C(=O)N[C@H](C(=O)N1CCC[C@H]1C(=O)N[C@@H](CC(=O)O)C(=O)N[C@H](C(=O)N[C@@H](CC(N)=O)C(=O)N1CCC[C@H]1C(=O)N[C@@H](C)C(=O)N[C@@H](Cc1c[nH]c2ccccc12)C(=O)N[C@@H](Cc1ccc(O)cc1)C(=O)N[C@@H](C)C(=O)N[C@@H](CO)C(=O)N[C@@H](CCCNC(=N)N)C(=O)NCC(=O)N[C@H](C(=O)N[C@@H](CCCNC(=N)N)C(=O)N1CCC[C@H]1C(=O)N[C@H](C(=O)NCC(=O)N[C@@H](CCCNC(=N)N)C(=O)N[C@@H](Cc1ccccc1)C(N)=O)C(C)C)[C@@H](C)CC)[C@@H](C)CC)[C@@H](C)O [Analog 58] (H-SETHRHSMEIK([Suc-TTDA(Palmitoyl)])TPDINPAWYASRGIRPVGRF-NH2; N-terminus assumed)
Food intake in mice % of saline-treated group (C57BL/6 mice): 7%
% of PrRP31, RC-4B/C rat pituitary cells (rat PrRP receptor): 575%
% of PrRP31, GPR10 human receptor transfected in CHO cells [1]: 103%

CCCCCCCCCCCCCCCC(=O)NCCCOCCOCCOCCCNC(=O)CCC(=O)NCCCC[C@H](NC(=O)[C@@H](NC(=O)[C@H](CCC(=O)O)NC(=O)[C@H](CCSC)NC(=O)[C@H](CO)NC(=O)[C@H](Cc1c[nH]cn1)NC(=O)[C@H](CCCNC(=N)N)NC(=O)[C@H](Cc1c[nH]cn1)NC(=O)[C@@H](NC(=O)[C@H](CCCNC(=N)N)NC(=O)[C@H](CO)NC(=O)CCC(=O)NCCCOCCOCCOCCCNC(=O)CCCCCCCCCCCCCCC)[C@@H](C)O)[C@@H](C)CC)C(=O)N[C@H](C(=O)N1CCC[C@H]1C(=O)N[C@@H](CC(=O)O)C(=O)N[C@H](C(=O)N[C@@H](CC(N)=O)C(=O)N1CCC[C@H]1C(=O)N[C@@H](C)C(=O)N[C@@H](Cc1c[nH]c2ccccc12)C(=O)N[C@@H](Cc1ccc(O)cc1)C(=O)N[C@@H](C)C(=O)N[C@@H](CO)C(=O)N[C@@H](CCCNC(=N)N)C(=O)NCC(=O)N[C@H](C(=O)N[C@@H](CCCNC(=N)N)C(=O)N1CCC[C@H]1C(=O)N[C@H](C(=O)NCC(=O)N[C@@H](CCCNC(=N)N)C(=O)N[C@@H](Cc1ccccc1)C(N)=O)C(C)C)[C@@H](C)CC)[C@@H](C)CC)[C@@H](C)O [Analog 59] ({TTDA(Palmitoyl)-Suc}-SRTHRHSMEIK([Suc-TTDA(Palmitoyl)])TPDINPAWYASRGIRPVGRF-NH2)
Food intake in mice % of saline-treated group (C57BL/6 mice): 23%
% of PrRP31, RC-4B/C rat pituitary cells (rat PrRP receptor): 85%
Ki [1]: 32.4 ± 3.57 nM
% of PrRP31, GPR10 human receptor transfected in CHO cells [1]: 12%

SRAHQHSMETRTPDINPAWYTGRGIRPVGRF-NH2 [Rat PrRP31, reference compound]
Food intake in mice % of saline-treated group (C57BL/6 mice): 100%
% of PrRP31, RC-4B/C rat pituitary cells (rat PrRP receptor): 100%
% of PrRP31, GPR10 human receptor transfected in CHO cells [1]: 100%

From US10350271B2, “Lipidated peptides for lowering blood glucose” (USTAV ORGANICKE CHEMIE A BIOCHEMIE AKADEMIE VED CR, V.V.I., priority 2014, dated 2019)
